Data published in patent US7138242B2, “Olfactory receptor expression libraries and methods of making and using them” (Johns Hopkins University, priority 1998, dated 2006).
Positions count from the first letter of the chain named.

Assays:
[1] = test system: Rho/M4NC-mouse I7 transmembrane II–VII chimeric receptor; assay: Ca2+ imaging, Rho/M4NC-mouse I7 TM II–VII chimeric receptor in HEK-293 cells; format: cell-based; conditions: 10 μM
[2] = target: T1, full-length rat I7 olfactory receptor fused to rhodopsin N-terminus (Rattus norvegicus, UniProt P23270); assay: Ca2+ imaging, HEK-293 cells expressing translocation domain (rhodopsin N-terminus) fused to full-length rat I7; format: cell-based
T1 construct: expressed in transfected cells; host or cells: HEK-293 with Gα15,16
T1 sequence (P23270 1-327): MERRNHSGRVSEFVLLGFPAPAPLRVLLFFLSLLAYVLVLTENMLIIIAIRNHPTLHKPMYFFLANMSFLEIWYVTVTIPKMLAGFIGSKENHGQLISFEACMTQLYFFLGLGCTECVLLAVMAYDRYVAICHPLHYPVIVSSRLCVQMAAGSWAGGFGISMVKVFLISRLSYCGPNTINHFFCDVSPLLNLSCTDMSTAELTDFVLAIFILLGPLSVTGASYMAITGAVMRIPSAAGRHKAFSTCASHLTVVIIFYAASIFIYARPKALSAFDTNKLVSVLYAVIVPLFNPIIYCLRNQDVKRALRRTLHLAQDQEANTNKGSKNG

[3] = test system: Rho/M4NC-ratI7 TM II–VII chimeric receptor; assay: Ca2+ imaging, HEK-293 cells co-expressing Rho/M4NC-ratI7 TM II–VII chimeric construct and Gα15,16; format: cell-based, rat; conditions: for relative Ca2+ response, octanal vs heptanal: identical experiments to mouse I7 chimera
Procedure: HEK-293 cells (obtained from the ATCC) were grown in DMEM supplemented with 10% fetal bovine serum, penicillin (100 U/ml), streptomycin (100 μg/ml) and L-glutamine (2 mM) in 5% CO2. Before transfection, the cells were seeded onto poly-L-lysine-coated 10.5×35×0.17 mm glass coverslips (Bellco) placed in the 60 mm culture dishes. Calcium phosphate-mediated transfections were performed in a 60 mm dish with 3 to 4 μg of receptor construct DNA, 1 μg of pCIS Gα 15 and Gα16 expression vector (Offermanns (1995) supra). 2 μg of pBluescript carrier DNA, and 0.3 μg of pRSV-T antigen expression vector (Gorman (1990) DNA and Protein Eng. Tech. 2:3–9). After 5 to 7 hr incubation, the cells were washed once with PBS containing 0.5 mM EDTA and 10% DMSO, then with PBS before continuing growth in regular media for 40–50 hr.
Efficient screening of expressed olfactory receptors with a large number of ligands by functional analysis requires a robust and sensitive assay system. Although the established role of cAMP in olfactory signaling offers a biochemical approach involving measurement of cAMP production in response to odorant stimulation, an alternative, rapid assay is to co-express the cloned olfactory receptors with G protein Gα15,16 subunits (see, e.g., Offermanns (1995) J. Biol. Chem. 270:15175–15180), which can promiscuously couple 7-transmembrane domain receptors that normally signal through other second messengers to the PIP2 pathway. In this reporter system, (olfactory) receptor activation leads to the generation of an IP3-mediated increase in intracellular Ca^2+, which can be measured at the single-cell level with high sensitivity and good temporal resolution using the dye FURA-2 and radiofluorometric imaging. These attributes were able to compensate for the low transfection efficiency in transient expression systems that would hinder more traditional biochemical assays.
These transfected cells were then tested for their ability to functionally respond to ligand-receptor binding. The ligand, the adrenergic agonist isoproterenol, was “bath” applied to the transfected cells and single cell Ca^2+-imaging was performed. Cells were pre-loaded with the Ca^2+-sensitive fluorescent dye FURA-2 AM (Molecular Probes) by bathing in serum-free DMEM containing 4 μM of the membrane permeant chemical for 1 hr at 37° C., then washed with a standard bath solution (130 mM NaCl, 2 mM CaCl2, 5 mM KCl, 10 mM glucose, 10 mM Na.HEPES/pH 7.4 at room temperature). For each experiment, a glass coverslip with FURA-2 loaded HEK 293 cells was introduced into an open-topped, longitudinal microperfusion chamber (300 μl bath volume mounted on a Zeiss Axiovert 135 microscope equipped with an F Fluar 40×/1.30 oil-immersion lens. The cells were superfused with test solutions typically for 30 to 40 seconds (5 ml/application) and washed out with 5 ml of bath solution at the end of each application. Each test solution was freshly diluted and manually applied with a micropipette into the chamber. Because of this manual procedure, there could be several seconds of delay in actual application from electronic tick marks used to define the beginning of application in each graph. At the same time, the solution flow might not be completely laminar. In most cases, the onset of Ca2+ rise in response to a specific solution occurred within 15 seconds of the beginning of solution application, though longer delays were sometimes observed. Acetylcholine was applied at the end of each experiment at 10 μM for 15–20 seconds. Ratiometric Ca^2+ measurements were performed as described by Grynkiewicz (1985) 260:3440–3450, with modifications using the Zeiss/Attofluor-Ratiovision imaging system. At 5-second intervals, the cells were sequentially illuminated for less than 100 ms, first at 340 nm and then at 380 nm. Fluorescence emission at 510 nm was monitored for each excitation wavelength via an intensified CCD camera. […]

[4] = target: T2, full-length rat I7 receptor, residue 206 valine/isoleucine substitution (Rattus norvegicus, UniProt P23270, V206I); assay: Ca2+ imaging, full-length rat I7 receptor with valine/isoleucine substitution at residue 206; format: cell-based; conditions: heptanal vs octanal
T2 construct: expressed in transfected cells; not repeated
T2 sequence (P23270 1-327 V206I): T1 sequence (P23270 1-327) with V206I

[5] = test system: Rho/M4NC-β2 TM II–VII (TM II–VII region from the β2-adrenergic receptor in pCMV-Rho/M4NC); assay: Single-cell FURA-2 Ca2+ imaging, HEK-293 cells co-transfected with Rho/M4NC-β2 TM II–VII and Gα15,16; format: cell-based, human; conditions: bath application; cells co-transfected with Gα15,16
Procedure: HEK-293 cells (obtained from the ATCC) were grown in DMEM supplemented with 10% fetal bovine serum, penicillin (100 U/ml), streptomycin (100 μg/ml) and L-glutamine (2 mM) in 5% CO2. […] After 5 to 7 hr incubation, the cells were washed once with PBS containing 0.5 mM EDTA and 10% DMSO, then with PBS before continuing growth in regular media for 40–50 hr.
Efficient screening of expressed olfactory receptors with a large number of ligands by functional analysis requires a robust and sensitive assay system. […] In this reporter system, (olfactory) receptor activation leads to the generation of an IP3-mediated increase in intracellular Ca^2+, which can be measured at the single-cell level with high sensitivity and good temporal resolution using the dye FURA-2 and radiofluorometric imaging.
A construct with the TM II–VII region from the β2-adrenergic receptor inserted in the pCMV-Rho/M4NC vector (Rho/M4NC-β2 TM II–VII) was co-transfected with Gα15,16 into HEK-293 cells. […] Images of fluorescent cells were obtained on a Zeiss 510 confocal microscope with excitation at 488 nm.
These transfected cells were then tested for their ability to functionally respond to ligand-receptor binding. The ligand, the adrenergic agonist isoproterenol, was “bath” applied to the transfected cells and single cell Ca^2+-imaging was performed. Cells were pre-loaded with the Ca^2+-sensitive fluorescent dye FURA-2 AM (Molecular Probes) by bathing in serum-free DMEM containing 4 μM of the membrane permeant chemical for 1 hr at 37° C., then washed with a standard bath solution (130 mM NaCl, 2 mM CaCl2, 5 mM KCl, 10 mM glucose, 10 mM Na.HEPES/pH 7.4 at room temperature). […] Acetylcholine was applied at the end of each experiment at 10 μM for 15–20 seconds. […] At 5-second intervals, the cells were sequentially illuminated for less than 100 ms, first at 340 nm and then at 380 nm. Fluorescence emission at 510 nm was monitored for each excitation wavelength via an intensified CCD camera. Averaged pixel intensities within 40 to 100 regions of interest, corresponding to 40 to 100 individual cells, were digitized and stored on a computer. Attofluor-Ratiovision software (Atto Instruments) was used to determine the Ca^2+-dependent fluorescence signal expressed as the F340/F380 ratio.

[6] = target: T3, full-length mouse I7 receptor, residue 206 valine/isoleucine substitution (Mus musculus, UniProt Q9QWU6, I206V); assay: Ca2+ imaging, full-length mouse I7 receptor with valine/isoleucine substitution at residue 206; format: cell-based; conditions: heptanal vs octanal
T3 construct: expressed in transfected cells; not repeated
T3 sequence (Q9QWU6 1-327 I206V): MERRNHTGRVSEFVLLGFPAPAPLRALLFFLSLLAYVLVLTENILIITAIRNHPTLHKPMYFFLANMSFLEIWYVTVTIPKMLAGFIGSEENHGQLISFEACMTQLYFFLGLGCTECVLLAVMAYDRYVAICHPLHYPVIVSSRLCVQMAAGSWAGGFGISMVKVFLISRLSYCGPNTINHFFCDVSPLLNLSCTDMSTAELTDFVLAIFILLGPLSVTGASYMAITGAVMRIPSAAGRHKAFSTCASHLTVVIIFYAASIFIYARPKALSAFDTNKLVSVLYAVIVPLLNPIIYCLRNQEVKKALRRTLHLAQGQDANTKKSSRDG

SMILES | intracellular Ca2+ response [1] | intracellular Ca2+ response ([2]; 30 μM) | intracellular Ca2+ response ([3]; 10 μM) | intracellular Ca2+ response ([3]; 30 μM) | relative Ca2+ response, octanal vs heptanal [3] | ligand preference [4] | intracellular Ca2+ response (FURA-2 F340/F380) [5] | intracellular Ca2+ response ([2]; 1 μM) | Ca2+ response to a second application ([3]; second application, even at 30 μM (desensitization)) | dependence of the Ca2+ response on Gα15,16 ([3]; with vs without Gα15,16) | ligand preference [6]
CCCCCCC=O [heptanal] | responded only to heptanal | small response | not 10 μM | responded to 30 μM | responded better to octanal than to heptanal | preferentially recognize heptanal | no effect | – | – | – | –
CCCCCCCC=O [octanal] | – | – | Ca^2+ transient was observed | – | responded better to octanal than to heptanal | – | no effect | responded | little or no effect | required the presence of Gα15,16 | preferentially recognize octanal
